From patent US20200253922A1, “METHODS FOR NON-[…] ADMINISTRATION OF CANNABINOIDS USING SOFT MIST […]” (Molecular Infusions, LLC, priority 2019, published 2020)
Like-named read-outs stand apart in the source and are kept apart here.

Tests used:
[1] = tested on: patients; conditions: aerosol formulation; cited from earlier work
[2] = Solubility of Δ9-THC and CBD in a solution of ethanol and saline at room temperature
Description: FIG. 5 is a photograph of 2% w/w Δ9-THC and 2% w/w CBD in solutions of 10%, 20%, 30%, 40% and 50% (w/w) saline in ethanol. Δ9-THC and CBD were soluble in solutions of up to 30% and 40% (w/w) saline, respectively.
As shown in FIG. 5 the solubility of Δ9-THC and CBD in a solution of ethanol and saline was investigated. […] A 2% w/w solution of CBD was prepared at room temperature in solutions of 10%, 20%, 30%, 40%, or 50% (w/w) saline in ethanol. 2% w/w CBD was soluble at room temperature in ethanol solutions of up to 40% saline. In a separate experiment, the absolute solubility of Δ9-THC in ethanol solutions containing 30%w/w saline was determined to be ˜8%w/w (data not shown).

[3] = tested on: Volunteers; test: User feedback on tolerability of Δ9-THC distillate in ethanol delivered via […]; assay type: in vivo, human; conditions: in 200 proof ethanol, RESPIMAT
Excerpt: Volunteers reported that 200 proof ethanol (placebo) delivered using the […]® device as non-irritating. It was observed that the cannabinoid, Δ9-THC in the ethanol solution, induced irritation that was dose dependent as shown in Table 1 below:
The irritation was caused by cannabinoid deposition at mucosal membranes in the throat and upper airways. The lung deposition profile is affected by multiple factor including FPF as well as user inhalation technique. For example, it has been shown that the timing of inhalation and actuation as well as the posture of the user's head can have an impact on lung deposition. It is also important to note that in vitro impactor studies commonly underestimate dose deposition in the throat and overestimate the dose deposited in the lungs (Wei et al. (2018), Journal of Aerosol Medicine and Pulmonary Drug Delivery 31(0): 1-14).

[4] = Fine particle fraction by Fast Screening Impactor, Respimat device, 28.3 L/min; assay type: physicochemical
Excerpt: An abbreviated impactor set-up, Copley Scientific's ‘Fast Screening Impactor’ (FSI), was used to determine the FPF within liquid aerosols (Mitchell et al. AAPS PharmSciTech. 2009;10(1):252-7). The FSI consisted of the universal induction port (UIP), course fraction collector (pre-separator and insert with a 5 μm diameter cut-off @ 28.3 L/min), and fine particle fraction collector consisting of a holder and glass fiber filter. The system was assembled along with a Copley LC5 pump. The flow rate was set by attaching a flow meter to the inlet of the induction port and adjusting the flow control valve on the LC5 vacuum pump until the flow rate through the system was 28.3 L/min +/−5%. Measurements were performed under ambient laboratory conditions (˜60% RH, 72° F.). The Respimat device was primed and attached to the UIP using a mouthpiece adapter. With the vacuum pump running, the device was actuated followed by a 30 second hold before turning off the vacuum pump. The Respimat device was re-primed and another dose was collected in the FSI. To determine the amount of cannabinoids deposited in each stage, the FSI was dismantled and each stage was extracted with 10 ml of methanol. Samples were diluted and HPLC performed to quantify the mass of cannabinoids deposited in the USP throat, coarse fraction collector, and fine particle fraction collector.

[5] = tested on: asthmatic patients; conditions: metered dose inhaler, cited from earlier work
[6] = tested on: subjects; conditions: 5 mg dose via pMDI; cited from earlier work
[7] = tested on: healthy volunteers; conditions: doses greater than 2 mg, PARI nebulizer, eight healthy volunteers, all patients; cited from earlier work
[8] = Terpene solubility assessment in base formulation of 10% Saline, 20% Water, 70% Ethanol; assay type: physicochemical; conditions: for Visual Observation: mixed overnight at room temperature
Description: The base formulation was prepared in bulk and 15 g aliquots were transferred to 22 ml scintillation vials. Pure, botanically derived terpenes were purchased from commercial sources.

[9] = acidic form; cited from earlier work

SMILES: CCCCCc1cc(O)c2c(c1)OC(C)(C)C1CC=C(C)CC21 (stereo not shown) [Δ8-THC, delta-8-tetrahydrocannabinol]
- cough reaction [1]: causing patients to cough

SMILES: C=C(C)[C@@H]1CCC(C)=C[C@H]1c1c(O)cc(CCCCC)cc1O [CBD, Cannabidiol]
- observation of 2% w/w solution ([2]; 50% (w/w) saline solution): precipitate

SMILES: CCCCCc1cc(O)c2c(c1)OC(C)(C)[C@@H]1CCC(C)=C[C@@H]21 [Δ9-THC, Delta-9-tetrahydrocannabinol]
- User experience ([3]; dose 0.35 mg): Most tolerable: Cough may occur, mild irritation of
- User experience ([3]; dose 0.6 mg): Harsh: Mild cough with mild throat/upper airway
- User experience ([3]; dose 1 mg): Harsh: Coughing with throat/upper airway irritation
- User experience ([3]; dose 2 mg): Extremely harsh: Coughing with throat/upper airway
- % dose in FPF ([4]; dose 0.35 mg): 76%
- % dose in FPF ([4]; dose 0.6 mg): 76%
- % dose in FPF ([4]; dose 1 mg): 77%
- % dose in FPF ([4]; dose 2 mg): 78%
- saline content of ethanol solution up to which 2% w/w is soluble ([2]; 2% w/w, room temperature, 10-50% (w/w) saline in ethanol tested): up to 30 % (w/w) saline
- observation of 2% w/w solution ([2]; 40% and 50% (w/w) saline solutions): form a separate liquid phase (oiling out)
- absolute solubility ([2]; ethanol solutions containing 30%w/w saline, data not shown): ~8 %w/w
- tolerability of aerosol delivery to the lungs ([5]; 0.2 mg): tolerable
- tolerability of aerosol delivery to the lungs ([5]; doses higher than 0.2 mg): irritating and induced coughing
- subjects with side effects including cough and/or chest discomfort [6]: 3 out of 11
- irritation reported after inhalation, compared to a placebo formulation [7]: significant irritation of the throat and upper respiratory tract

SMILES: C=CC(=C)CCC=C(C)C [β-myrcene]
- solubility at the lowest percentage tested ([8]; 0.06% w/w): not soluble
- Visual Observation ([8]; Target Concentration 0.06% w/w): Hazy, not fully
- Visual Observation ([8]; Target Concentration 0.24% w/w): Hazy, not fully
- Visual Observation ([8]; Target Concentration […] w/w): Hazy, not fully

SMILES: CC1=CCC(=C(C)C)CC1 [Terpinolene]
- Visual Observation ([8]; Target Concentration 0.06% w/w): Clear, colorless
- Visual Observation ([8]; Target Concentration 0.24% w/w): Hazy, not fully
- Visual Observation ([8]; Target Concentration […] w/w): Clear, colorless

SMILES: O=C1NS(=O)(=O)c2ccccc21 [saccharin]
- pKa [9]: ~1.9

SMILES: C=CC(C)(O)CCC=C(C)C (stereo not shown) [Linalool]
- Visual Observation ([8]; Target Concentration 0.06% w/w): Clear, colorless
- Visual Observation ([8]; Target Concentration 0.24% w/w): Hazy, not fully
- Visual Observation ([8]; Target Concentration […] w/w): Clear, colorless

SMILES: C=C1CC/C=C(\C)CC[C@@H]2[C@@H]1CC2(C)C [β-caryophyllene]
- Visual Observation ([8]; Target Concentration 0.06% w/w): Clear, colorless
- Visual Observation ([8]; Target Concentration 0.24% w/w): Hazy, not fully
- Visual Observation ([8]; Target Concentration […] w/w): Clear, colorless

SMILES: CC12CCC(CC1)C(C)(C)O2 [Eucalyptol]
- Visual Observation ([8]; Target Concentration 0.06% w/w): Clear, colorless
- Visual Observation ([8]; Target Concentration 0.24% w/w): Hazy, not fully
- Visual Observation ([8]; Target Concentration […] w/w): Clear, colorless
